The source of these data is US20090226500A1, “SUTURES AND ANTI-SCARRING AGENTS” (Angiotech Pharmaceuticals, Inc, priority 2006, published 2009).

Structures can show the parent of a compound that is named as a salt. Numbered stars: 1 amine (or outer) side, 2 acyl side, 3 side chain; on linkers, the order of the positions; unused ones are H or OH. Bridge positions count the residues as written; N and C are the ends. Square brackets hold non-standard residues; d marks the D form. Peptide text beside a SMILES is read from it. I, II: the chains in the order shown. Actinocin(9to1) = Cc1c2oc3c(C)ccc(C(=O)[*:1])c3nc-2c(C(=O)[*:2])c(N)c1=O; NMeV = CN[C@H](C(=O)O)C(C)C; Sar = CNCC(=O)O

The test system of this test is human fibroblasts. The experiment in a line: Cell proliferation of fibroblasts. Format: cell-based. Conditions: Fibroblast, 72 hours, CYQUANT, read-out: IC50 cell proliferation of fibroblasts. On the procedure:
Fibroblasts at 70-90% confluency are trypsinized, replated at 600 cells/well in media in 96-well plates and allowed to attachment overnight. […] Each drug concentration is tested in triplicate wells. Plates containing fibroblasts and drug substance are incubated at 37° C. for 72 hours.
To terminate the assay, the media is removed by gentle aspiration. A 1/400 dilution of CYQUANT 400×GR™ dye indicator (Molecular Probes; Eugene, Oreg.) is added to 1× Cell Lysis buffer, and 200 μL of the mixture is added to the wells of the plate. Plates are incubated at room temperature, protected from light for 3-5 minutes.
On to `Nc1ncn([C@@H]2O[C@H](CO)[C@@H](O)[C@H]2O)c(=O)n1` [5-Azacytidine], for which the IC50 lay in the range of 600 to 1200 nM.

On to `O=c1cnn([C@@H]2O[C@H](CO)C(O)[C@@H]2O)c(=O)[nH]1` (stereo partly drawn) [6-Azauridine, 6-Azauracil riboside], for which the IC50 was in the range of 1200 to 10000 nM.

In the case of `CC[C@@]1(O)C[C@H](O[C@H]2C[C@H](N(C)C)[C@H](O[C@H]3C[C@H](O)[C@H](O[C@H]4CCC(=O)[C@H](C)O4)[C@H](C)O3)[C@H](C)O2)c2c(cc3c(c2O)C(=O)c2c(O)cccc2C3=O)[C@H]1C(=O)OC` [Aclarubicin], the IC50 fell in the range of 0.1 to 10 nM.

Consider `Cc1c2oc3c(C)ccc(C(=O)N[C@@H]4C(=O)N[C@H](C(C)C)C(=O)N5CCC[C@H]5C(=O)N(C)CC(=O)N(C)[C@@H](C(C)C)C(=O)O[C@@H]4C)c3nc-2c(C(=O)N[C@@H]2C(=O)N[C@H](C(C)C)C(=O)N3CCC[C@H]3C(=O)N(C)CC(=O)N(C)[C@@H](C(C)C)C(=O)O[C@@H]2C)c(N)c1=O` [Actinomycin D] (I: T[dV]P[Sar][NMeV] / II: T[dV]P[Sar][NMeV]; ester I:1-I:C, II:1-II:C; linker I:N-II:N via Actinocin(9to1)), for which the IC50 is 0.1 to 10 nM.

With `CCCSc1ccc2nc(NC(=O)OC)[nH]c2c1` [Albendazole], the IC50 is 100 to 600 nM.

For the compound `S=C(S)N1CCCC1` [Ammonium pyrrolidinedithiocarbamate, 1-Pyrrolidinecarbodithioic acid ammonium salt], the IC50 fell in the range of 100 to 600 nM.

With `N=c1ccn2c(n1)O[C@H]1[C@H](O)[C@@H](CO)O[C@H]12` [Ancitabine hydrochloride], the IC50 fell in the range of 100 to 600 nM.

Take `O=c1cc(-c2ccc(O)cc2)oc2cc(O)cc(O)c12` [Apigenin, 4,5,7-Trihydroxyflavone]: the IC50 was 1200 to 10000 nM.

As to `O=C1C(O)=C([C@H]2CC[C@H](c3ccc(Cl)cc3)CC2)C(=O)c2ccccc21` [Atovaquone], the IC50 was in the range of 1200 to 10000 nM.

For the compound `Cc1ccc2nc(NCCN)c3ncc(C)n3c2c1` [BMS-345541], the IC50 lay within 1200 to 10000 nM.

As to `O=C(OOC(=O)c1ccccc1)c1ccccc1` [Benzoyl peroxide], the IC50 is 1200 to 10000 nM.

As to `C=C(C)[C@@H]1CC[C@]2(C(=O)O)CC[C@]3(C)[C@H](CC[C@@H]4[C@@]5(C)CC[C@H](O)C(C)(C)[C@@H]5CC[C@]43C)[C@@H]12` [Betulinic acid], the IC50 lay within 1200 to 10000 nM.

In the case of `Clc1ccc(CCC(Cn2ccnc2)Sc2c(Cl)cccc2Cl)cc1` (stereo not drawn) [Butoconazole Nitrate], the IC50 fell in the range of 1200 to 10000 nM.

For the compound `O=C1NC(=O)c2cc(Nc3ccc(F)cc3)c(Nc3ccc(F)cc3)cc21` [CGP53353], the IC50 lay in the range of 1200 to 10000 nM.

Regarding `CCOc1nc2cccc(C(=O)O)c2n1Cc1ccc(-c2ccccc2-c2nnn[nH]2)cc1` [Candesartan], the IC50 fell in the range of 10 to 100 nM.

`O=NN(CCCl)C(=O)NCCCl` [Carmustine]: the IC50 fell in the range of 1200 to 10000 nM.

For `Cc1ccc(-c2cc(C(F)(F)F)nn2-c2ccc(S(N)(=O)=O)cc2)cc1` [Celecoxib], the IC50 is 100 to 600 nM.

Regarding `C/C=C(\C)C(=O)N[C@@H](c1ccccc1)[C@@H](O)C(=O)O[C@H]1C[C@@]2(O)[C@@H](OC(=O)c3ccccc3)[C@@H]3[C@]4(OC(C)=O)CO[C@@H]4C[C@H](O)[C@@]3(C)C(=O)[C@H](OC(C)=O)C(=C1C)C2(C)C` [Cephalomannine], the IC50 is 10 to 100 nM.

Regarding `COc1ccc2cc1Oc1ccc(cc1)C[C@H]1c3c(cc4c(c3Oc3cc5c(cc3OC)CCN(C)[C@@H]5C2)OCO4)CCN1C` [Cepharanthine], the IC50 was 600 to 1200 nM.

With `COCc1c(C(C)C)nc(C(C)C)c(/C=C/[C@@H](O)C[C@@H](O)CC(=O)O)c1-c1ccc(F)cc1` [Cerivastatin Na], the IC50 lay in the range of 1200 to 10000 nM.

Consider `CC1(COc2ccc(CC3SC(=O)NC3=O)cc2)CCCCC1` (stereo not drawn) [Ciglitazone], for which the IC50 was in the range of 600 to 1200 nM.

Consider `CC[C@H]1OC(=O)[C@H](C)[C@@H](O[C@H]2C[C@@](C)(OC)[C@@H](O)[C@H](C)O2)[C@H](C)[C@@H](O[C@@H]2O[C@H](C)C[C@H](N(C)C)[C@H]2O)[C@](C)(OC)C[C@@H](C)C(=O)[C@H](C)[C@@H](O)[C@]1(C)O` [Clarithromycin, 6-O-Methylerythromycin], for which the IC50 lay in the range of 100 to 600 nM.

As to `O=C1CCc2cc(OCCCCc3nnnn3C3CCCCC3)ccc2N1` [Cliostazol], the IC50 was in the range of 1200 to 10000 nM.

Regarding `CCOC(=O)COc1ccc2c(C)c(CCN(CC)CC)c(=O)oc2c1Cl` [Cloricromene], the IC50 lay in the range of 1200 to 10000 nM.

Consider `COc1cc(/C=C/C(=O)CC(=O)/C=C/c2ccc(O)c(OC)c2)ccc1O` [Curcumin, Diferuloylmethane], for which the IC50 fell in the range of 1200 to 10000 nM.

Turning to `CN(C)/N=N/c1[nH]cnc1C(N)=O` [Dacarbazine], the IC50 is 10 to 100 nM.

Take `Nc1ncn([C@H]2C[C@H](O)[C@@H](CO)O2)c(=O)n1` [Decitabine, 5-Aza-2-deoxycytidine]: the IC50 is 100 to 600 nM.

For `O=c1oc2ccccc2c(O)c1Cc1c(O)c2ccccc2oc1=O` [Dicumarol, 3,3-Methylenebis(4-hydroxycoumarin)], the IC50 fell in the range of 1200 to 10000 nM.

As for `CC(=O)OCC(=O)[C@@]1(OC(C)=O)[C@@H](C)C[C@H]2[C@@H]3C[C@H](F)C4=CC(=O)C=C[C@]4(C)[C@@]3(F)[C@@H](O)C[C@@]21C` [Diflorasone diacetate], the IC50 lay in the range of 1200 to 10000 nM.

Regarding `Cc1cc(O)c2c(c1)C(=O)c1cc(O)cc(O)c1C2=O` [Emodin, 6-Methyl-1,3,8-trihydroxyanthraquinone], the IC50 was in the range of 1200 to 10000 nM.

On to `CCOC(=O)[C@H](CCc1ccccc1)N[C@@H](C)C(=O)N1CCC[C@H]1C(=O)O` [Enalapril], for which the IC50 lay in the range of 1200 to 10000 nM.

On to `COC(=O)C=Cc1cc(O)ccc1O` [Erbstatin analog, Methyl 2,5-dihydroxycinnamate], for which the IC50 was 1200 to 10000 nM.

Take `O=C(O)CSCC(=O)NC1CCSC1=O` (stereo not drawn) [Erdosteine]: the IC50 lay in the range of 1200 to 10000 nM.

In the case of `NC(N)=Nc1nc(CSCCC(N)=NS(N)(=O)=O)cs1` [Famotidine], the IC50 lay within 100 to 600 nM.

Take `O=S(=O)(c1cccc2cnccc12)N1CCCNCC1` [Fasudil]: the IC50 is 600 to 1200 nM.

With `Nc1nc(F)nc2c1ncn2[C@@H]1O[C@H](COP(=O)(O)O)[C@@H](O)[C@@H]1O` [Fludarabine Phosphate], the IC50 is 1200 to 10000 nM.

Consider `CC(C)n1c(/C=C/C(O)CC(O)CC(=O)O)c(-c2ccc(F)cc2)c2ccccc21` (stereo not drawn) [Fluvastatin], for which the IC50 lay within 100 to 600 nM.

On to `COc1ccc(-c2coc3cc(O)ccc3c2=O)cc1` [Formononetin, 7-Hydroxy-4-methoxyisoflavone], for which the IC50 fell in the range of 100 to 600 nM.

`Cc1ccc(C)c(OCCCC(C)(C)C(=O)O)c1` [Gemfibrozil]: the IC50 fell in the range of 10 to 100 nM.

For `CCCCCCC(C)(C)c1cc(O)c2c(c1)OC(C)(C)[C@@H]1CC=C(CO)C[C@@H]21` [HU-210], the IC50 is 1200 to 10000 nM.

For `CCC(=O)O[C@]1(C(=O)CCl)[C@@H](C)C[C@H]2[C@@H]3C[C@H](F)C4=CC(=O)C=C[C@]4(C)[C@@]3(F)[C@@H](O)C[C@@]21C` [Halobetasol Propionate], the IC50 is 1200 to 10000 nM.

Consider `COc1ccc([C@@H]2CC(=O)c3c(O)cc(O)cc3O2)cc1O` [Hesperetin], for which the IC50 is 0.1 to 10 nM.

`COC(=O)C[C@](O)(CCCC(C)(C)O)C(=O)O[C@@H]1C(OC)=C[C@]23CCCN2CCc2cc4c(cc2[C@H]13)OCO4` [Homoharringtonine]: the IC50 lay within 10 to 100 nM.

On to `NNc1nncc2ccccc12` [Hydralazine hydrochloride], for which the IC50 lay within 1200 to 10000 nM.

Regarding `O=C(Nc1cc(C(F)(F)F)cc(C(F)(F)F)c1)c1cc(Cl)ccc1O` [IMD-0354], the IC50 lay within 100 to 600 nM.
